# Literature values, collected in patent publication US20240245703A1, “TOPICAL APPLICATION OF AGENTS TO REDUCE SUN SENSITIVITY AND IMPROVE TOPICAL PHOTODYNAMIC THERAPY” (Wright State University, priority 2021, published 2024).
# Test system: aSMase
# Conditions: 10 micromolar, PC12 cells, incubation time 0.5 h; % of corresponding control values; cited from earlier work
row,SMILES,Residual ASM Activity [%]
1,"Clc1ccccc1CNCC1CCC(CNCc2ccccc2Cl)CC1 (centres unmarked) [AY9944, N-[(2-chlorophenyl)methyl]-1-[4-[[(2-chlorophenyl)methylamino]methyl]cyclohexyl]methanamine]",22.1
2,CN1[C@@H]2CC[C@H]1C[C@@H](OC(c1ccccc1)c1ccccc1)C2 [Benztropine],12.7
3,CCN(CC)CCOc1ccc(C(=C(Cl)c2ccccc2)c2ccccc2)cc1 [Clomiphene],13.0
4,CN(C)CCCN1c2ccccc2CCc2ccc(Cl)cc21 [Clomipramine],21.8
5,CN(C)CCC=C1c2ccccc2C=Cc2ccccc21 [Cyclobenzaprine],26.2
6,CC(NCCC(c1ccccc1)c1ccccc1)c1ccccc1 (centres unmarked) [Fendiline],25.2
7,CNCCC(Oc1ccc(C(F)(F)F)cc1)c1ccccc1 (centres unmarked) [Fluoxetine],13.0
8,OCCN1CCN(CC/C=C2/c3ccccc3Sc3ccc(C(F)(F)F)cc32)CC1 [Flupenthixol],18.2
9,CNCCCC12CCC(c3ccccc31)c1ccccc12 [Maprotiline],13.5
10,NCCC(Oc1ccc(C(F)(F)F)cc1)c1ccccc1 (centres unmarked) [Norfluoxetine],22.5
11,Fc1ccc([C@@H]2CCNC[C@H]2COc2ccc3c(c2)OCO3)cc1 [Paroxetine],31.7
12,C1CCC(C(CC2CCCCN2)C2CCCCC2)CC1 (centres unmarked) [Perhexiline],8.5

# Same assay, conditions: 10 micromolar, PC12 cells, incubation time 6 h; % of corresponding control values; cited from earlier work
row,SMILES,Residual ASM Activity [%]
1,CCN(CC)CCCN(c1ccccc1)C1Cc2ccccc2C1 [Aprindine],27.5
2,COc1ccc(CCN2CCC(Nc3nc4ccccc4n3Cc3ccc(F)cc3)CC2)cc1 [Astemizole],14.3
3,COCC(=O)O[C@]1(CCN(C)CCCc2nc3ccccc3[nH]2)CCc2cc(F)ccc2[C@@H]1C(C)C [Mibefradil],20.8
4,OC1(c2ccc(Cl)c(C(F)(F)F)c2)CCN(CCCC(c2ccc(F)cc2)c2ccc(F)cc2)CC1 [Penfluridol],22.0

# Same assay, conditions: 10 micromolar, PC12 cells, incubation time 24 h; % of corresponding control values; cited from earlier work
row,SMILES,Residual ASM Activity [%]
1,CCN(CCCc1ccccc1)CCCc1ccccc1 [Alverine],21.7
2,CCCCc1oc2ccccc2c1C(=O)c1cc(I)c(OCCN(CC)CC)c(I)c1 [Amiodarone],14.5
3,CC(C)COCC(CN(Cc1ccccc1)c1ccccc1)N1CCCC1 (centres unmarked) [Bepridil],27.1
4,OC(CCN1CCCCC1)(c1ccccc1)C1CC2C=CC1C2 (centres unmarked) [Biperidene],26.2
5,CCN(CC)CCNC(C(=O)OCCC(C)C)c1ccccc1 (centres unmarked) [Camylofin],21.7
6,COc1ccccc1OCCNCC(O)COc1cccc2[nH]c3ccccc3c12 (centres unmarked) [Carvedilol],22.4
7,Clc1ccc(C(OCCN2CCCCC2)c2ccccc2)cc1 (centres unmarked) [Cloperastine],26.7
8,C[C@H]1[C@H]2CC[C@H]3[C@@H]4CC=C5C[C@@H](N(C)C)CC[C@]5(C)[C@H]4CC[C@]23CN1C [Conessine],20.8
9,CCN(CC)CCOC(=O)C(c1ccccc1)C1CCCCC1 (centres unmarked) [Drofenine],20.8
10,CC[C@H]1CN2CCc3cc(OC)c(OC)cc3[C@@H]2C[C@@H]1C[C@H]1NCCc2cc(OC)c(OC)cc21 [Emetine],0.4
11,CN(CCCN1c2ccccc2CCc2ccccc21)CC(=O)c1ccc(Cl)cc1 [Lofepramine],19.2
12,CN(C)C(=O)C(CCN1CCC(O)(c2ccc(Cl)cc2)CC1)(c1ccccc1)c1ccccc1 [Loperamide],24.4
13,CCN(CCCCOC(=O)c1ccc(OC)c(OC)c1)C(C)Cc1ccc(OC)cc1 (centres unmarked) [Mebeverine],31.8

# Same assay, conditions: 10 micromolar, PC12 cells, incubation time 48 h; % of corresponding control values; cited from earlier work
row,SMILES,Residual ASM Activity [%]
1,CN(Cc1cc(Br)cc(Br)c1N)C1CCCCC1 [Bromhexine],102.8
2,CC(C)/N=c1\cc2n(-c3ccc(Cl)cc3)c3ccccc3nc-2cc1Nc1ccc(Cl)cc1 [Clofazimine],23.7
3,Fc1ccc(C(c2ccc(F)cc2)N2CCN(C/C=C/c3ccccc3)CC2)cc1 [Flunarizine],32.7
